In patent US20030148337A1, “ARL-2 for birth control” (Schering AG, priority 2001, published 2003):

Legend:
human ARL-2 protein = molecular target: T1, human ARL-2 protein (Homo sapiens, UniProt C9JRZ8); assay: Standard ARL-2 enzyme assay (NADPH A340 decrease); assay type: biochemical; details: sodium-phosphate buffer pH 6.3, 0.2 mmol NADPH, 28° C.
T1 construct: For the expression of the ARL-2 protein, the coding area was amplified by means of the polymerase chain reaction; His-tag; made in house; host or cells: E. coli (pQE30) or insect cells (baculovirus pBlueBac4.5/V5-His-TOPO)
From the text: For the expression of the ARL-2 protein, the coding area was amplified by means of the polymerase chain reaction (for reaction conditions, see Example 2) (primer for the N-terminal area: 5′ ATGGCCACGTTTGTGGAGCTC 3′; primer for the C-terminal area: 5′ ATATTCTGCATCGAAGGGAAA 3′), and inserted in the baculovirus expression vector pBlueBac4.5/V5-His-TOPO (Invitrogen) or the eukaryotic expression vector pcDNA3.1/V5/His-TOPO (Invitrogen). For the expression of the ARL-2 protein in E. coli, the coding area was amplified by means of a polymerase chain reaction (for reaction conditions, see Example 2) (primer for the N-terminal area: 5′ CGGGATCCGCCACGTTTGTGGAGCTC 3′; primer for the C-terminal area: 5′ CCCAAGCTTTCAATATTCTGCATCGAAGGGAAA 3′) and inserted in the procaryotic expression vector pQE30 (Quiagen). To simplify detection and purification, a fusion with an His-tag was carried out. […]
A standard ARL-2 enzyme assay was performed as follows: The standard enzyme reaction batch contained 135 mmol of sodium-phosphate buffer (pH 6.3), 0.2 mmol of NADPH and measured substrate and enzyme concentrations. The enzyme reaction was carried out at 28° C., and the substrate conversion was determined by spectrometry via the reduction of A340 of the NADPH. […] Controls without substrate and without enzyme were measured with respect to the standard. […]

[1] = test system: adrenocorticotrophic carcinoma cell line Y1; assay: Test system for apoptosis-inducing substances, annexin-V staining in Y1 cells; assay type: cell-based, mouse; details: concentration of 10 μM; 12 hours incubation
Method: In this test system, substances can be examined with respect to their apoptosis-inducing action. The adrenocorticotrophic carcinoma cell line Y1 was used as a cell system. Cell cultures of this mouse cell line were treated for 12 hours with different substances before the rate of apoptosis in the cells was determined. […] Y1 cells/ml were resuspended in DME/F12 (+10% FCS) and treated with the substances to be tested. After 12 hours of incubation time, the apoptosis rate was determined in the Y1 cells using annexin-V-alexa 468 staining (Roche) in combination with DNA staining (Hoechst-33258, Molecular Probes) according to manufacturer's information.

[2] = test system: endothelial cell cultures; details: Herbst et al., 1997; cited from earlier work
neuronal cell cultures = details: Kruman et al., 1997; Malecki et al., 2000; cited from earlier work

T1 sequence (C9JRZ8 whole entry): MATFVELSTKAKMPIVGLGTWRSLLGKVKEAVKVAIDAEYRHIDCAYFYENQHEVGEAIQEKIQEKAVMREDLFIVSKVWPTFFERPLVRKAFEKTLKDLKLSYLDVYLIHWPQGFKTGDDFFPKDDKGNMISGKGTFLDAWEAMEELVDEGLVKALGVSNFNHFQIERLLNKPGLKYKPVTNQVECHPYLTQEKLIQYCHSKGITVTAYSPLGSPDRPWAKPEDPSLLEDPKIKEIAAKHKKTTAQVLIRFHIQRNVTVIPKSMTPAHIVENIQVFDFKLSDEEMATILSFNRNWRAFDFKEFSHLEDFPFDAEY

SMILES | substrate of the aldo-keto-reductase ARL-2 (human ARL-2 protein) | induction of apoptosis in the Y1 cell line [1] | induction of apoptosis in endothelial cell cultures [2] | induction of apoptosis in neuronal cell cultures (neuronal cell cultures)
CCCCCC(O)/C=C/C=O (centres unmarked) [4-hydroxynonenal] | preferred substrates | can induce apoptosis | induces apoptosis | induces apoptosis
CC(C)CCC=O [isocaproaldehyde] | preferred substrates |  |  | 
